Test results as given in BigSolDB 2.1.

CC(=O)O[C@]1(C(C)=O)CC[C@H]2[C@@H]3C=C(Cl)C4=CC(=O)[C@@H]5C[C@@H]5[C@]4(C)[C@H]3CC[C@@]21C
solubility (mole fraction)
Settings	273.15 K	278.15 K	283.15 K	288.15 K	293.15 K	298.15 K	303.15 K	308.15 K	313.15 K	318.15 K
in MTBE	0.000675	0.000675	0.000676	0.000676	0.000677	0.000677	0.000678	0.000678	0.000679	0.000679
in methanol	0.000229	0.000229	0.000229	0.00023	0.00023	0.00023	0.00023	0.00023	0.00023	0.000231
in water	6.57e-07	8.66e-07	1.16e-06	1.56e-06	2.09e-06	2.79e-06	3.67e-06	4.88e-06	6.36e-06	8.21e-06
